The values below come from patent US20240424175A1, “ANTICOAGULANT COMPOUNDS COMPRISING CHELATING AGENTS AND CATIONIC ANTI-COAGULATION ENHANCERS AND METHODS AND DEVICES FOR THEIR USE” (Elixir Medical Corporation, priority 2021, published 2024).

A value given as a limit tells only on which side of the number the result lay.

The subject of data set [1] is Human Aortic SMC (HAoSMC, ATCC, PCS-100-012). Kind of data set: HAoSMC cell proliferation assay (CellTiter Aqueous, 96-well). In kind it is cell-based. To be noted: drug alone, various concentrations; 72 hours; FIGS. 1D-1E.
Description: Cell proliferation assay was done in 96-well format. Low passage cells were trypsinized and seeded in 96 well plates at a density of ˜4000 cells/well. The cells are allowed to attach overnight in a CO2 incubator. Next day, the medium was removed and replaced with fresh complete medium containing various concentrations of the test compounds. The final concentration of vehicle (DMSO) in the test medium was 0.1%. After adding test compounds, the cells were incubated for 72 hours. Following this period, the medium was removed and then added fresh medium (100 μl) containing CellTiter Aqueous (1× concentration final) to the wells and incubated for 2 hours in the CO2 incubator. At the end of incubation measured fluorescence with a plate-reader. Controlled incubations with untreated cells and blank incubations containing only medium were included and tested similarly. Based on the cell viability assay the percentage inhibition of the cell proliferation was determined at the different concentrations of the drug tested.
Following the cell proliferation assay as indicated earlier, the percent cell proliferation inhibition was determined, and the assay results plotted to determine the IC50.
Data set [2] concerns citrated sheep blood. Kind of data set: Activated clotting time (ACT) in calcium-reconstituted citrated sheep blood, Hemochron Response (Example 2). In kind it is biochemical. To be noted: individual drug at 0.6 ng/mg; FIG. 2C. On the procedure:
The activated clotting time (ACT) evaluation of anticoagulants was performed in calcium-reconstituted sheep blood and recorded employing the Hemochron® Response device. […] A target amount of drug solution was then added into the test tube. […] The tube was gently shaken before being inserted into the Hemochron Response detector. The ACT read out was recorded and reported. The ACT of the control blood in the absence of any drug as first determined to establish a baseline. Then ACT was determined in the presence of different concentrations of the drug as a single component. Selected drug combinations were then tested to evaluate for potential synergy in action between the two drugs.

Data set [3] has as its system porcine coronary artery model. Kind of data set: Fibrin score, histopathology of stented arteries in porcine coronary artery model (Examples 16, 17). In kind it is in vivo. Conditions: 14 mm stents, n = 3; score 0 to 3, smaller is better; bare metal control stent 1.02 ± 0.35.
Description: The drug eluting stent systems containing different anticoagulants prepared as described in Example 11 were evaluated at 3 hours, 6 hours, 1 day, 3 days, 6 days, 7 days, or 28 days following implantation in a porcine coronary artery model.
After induction of anesthesia, the left or right femoral artery was accessed using standard techniques and an arterial sheath was introduced and advanced into the artery. Vessel angiography was performed under fluoroscopic guidance, a 7 Fr, guide catheter was inserted through the sheath and advanced to the appropriate location where intracoronary nitroglycerin was administered. An appropriate implantation segment of coronary artery was randomly selected and a 0.014″ guidewire inserted. Quantitative Coronary Angiography (QCA) was performed to document the results. The appropriately size stent was advanced to the deployment site. The balloon was inflated at a steady rate to a pressure sufficient to achieve a balloon to artery ratio of approximately 1.1 to 1.0.
Stented portions of coronary arteries were embedded in methyl methacrylate (MMA), then divided into a target of at least three blocks of approximately similar lengths for histology evaluation. Quantitative histopathological evaluation of stented artery sections was then performed and scored as indicated. For Fibrin formation, scores ranged from 0 to 3, with a score of 0 indicating absent or rare minimal spotting around struts of the stent, a score of 1 indicating the presence of fibrin in small amounts localized only around the struts, a score of 2 indicating the moderately abundant or denser presence of fibrin around and extending beyond the struts, and a score of 3 indicating the presence of abundant and dense fibrin and/or bridging of the fibrin between the struts. The mean score was calculated and reported. The mean of each section was then averaged to provide a mean fibrin score per stent. The smaller the fibrin score, the better efficacy.
Data set [4] relates to porcine coronary artery model. Kind of data set: Late lumen loss (LLL) by follow up angiography in porcine coronary artery model (Example 16). In kind it is in vivo. Conditions: 14 mm stents, n = 3; smaller is better; bare metal control stent 0.17 ± 0.22.
Data set [5] is described as follows: In vivo drug release, drug remaining on stent and tissue drug concentration of SS7-SS17 stents (Tables 12A-12D). Conditions: 28 D following implantation. The source says: The stented artery was cut longitudinally with surgical scissors. The stents were separated from the tissue.
In data set [6] the test system is Tissue factor generated antiplatelet. Conditions: cited from earlier work; for IC50 for Tissue factor generated antiplatelet: expressed in ng/mg.
Data set [7] concerns citrated sheep blood. Kind of data set: Activated clotting time (ACT) of EDTA or other anti-coagulant compounds in citrated sheep blood (Example 4). It counts as biochemical. As for the experimental part:
The activated clotting time (ACT) evaluation of anticoagulants was performed in Calcium-reconstituted sheep blood and recorded employing the Hemochron® Response device. […] A target amount of EDTA or other anti-coagulant compounds solution was then added into the test tube. […] The tube was gently shaken before being inserted into the Hemochron Response detector. The ACT read out was recorded and reported.

In data set [8] the test system is fresh pig blood. Kind of data set: Activated clotting time (ACT) of EDTA or analogues in fresh pig blood (Example 3). Conditions: for Clotting time: blood control 154. It counts as biochemical. As for the experimental part: The ACT measurements were made in fresh pig blood. 1.0 ml of fresh pig blood was added to a test tube containing an activator (Hemochron@Celite@ ACT tubes, Lot F8FTE026 from Accriva Diagnostics, Inc.). A target amount of drug solution was then added into the test tube. The test tube was gently swirled so that the blood and drug was well-mixed. 0.1 ml of 0.3M calcium chloride was then added. The tube was gently shaken before being inserted into the Hemochron Response detector. The ACT read out was recorded and reported. The ACT of the control blood in the absence of any drug as first determined to establish a baseline.

The nature of data set [9]: pH of 1 mg/ml EDTA or analogue in water or phosphate buffer. It counts as physicochemical.
Setting [10] is: final concentration 67 ng/mg (66.7 μg/ml).
[11] abbreviates: final concentration 100 ng/mg (100 μg/ml).
[12] abbreviates: final concentration […] (133.3 μg/ml).
The mark [13] stands for this setting: final concentration […] (166.7 μg/ml).
The mark [14] stands for this setting: final drug concentration 200 ng/mg.
Where [15] appears, read: 1 mg/ml in 0.01M pH 7.4 phosphate buffer, 21.8-22.3 °C.
[16] abbreviates: final drug concentration 500 ng/mg.
Setting [17] is: final drug concentration 75 ng/mg.
Where [18] appears, read: final drug concentration 100 ng/mg.
Setting [19] is: final drug concentration 150 ng/mg.
[20] abbreviates: final drug concentration 300 ng/mg.
[21] abbreviates: final drug concentration 250 ng/mg.

On to `COc1ccc(-n2nc(C(N)=O)c3c2C(=O)N(c2ccc(N4CCCCC4=O)cc2)CC3)cc1` [Apixaban], for which, in [1], the “inhibition of HAoSMC proliferation” value is reported as “small to no inhibition”. Further, the ACT in [2] is 522.

In general, IC50 refers to the concentration at which inhibition is half-maximal. For the molecule `CC1CNc2c(cccc2S(=O)(=O)N[C@@H](CCCNC(=N)N)C(=O)N2CC[C@@H](C)C[C@@H]2C(=O)O)C1` (stereo partly shown) [Argatroban], in [1], the “inhibition of HAoSMC proliferation” value was “small to no inhibition”. Moreover, the ACT in data set [2] came to 301. Also, the “Fibrin score at day 7” value in data set [3] is “not effective at inhibiting fibrin formation”. Further, in [4], the “LLL at day 7” value is “not effective at inhibiting smooth muscle cell proliferation”. In addition, in data set [5], the “Tissue drug concentration (ng/mg) in the stented segment tissue, Argatroban” value is reported as “about 1.69 ng/mg”. In [6], the concentration for half-maximal inhibition (IC50) was 79 nM and the “IC50 for Tissue factor generated antiplatelet” value is 0.04 ng/mg.

As to `CCCCCCCCCCCCCC[N+](C)(C)Cc1ccccc1.[Cl-]` [Benzyldimethyltetradecylammonium chloride], the “Clotting time” value in data set [7] (setting [10]) amounted to 316 s; in data set [7] (setting [11]) it was 421 s; in [7] (setting [12]) it was 983 s; in data set [7] (setting [13]) it was 1370 s. In addition, the “Increase in clotting time compared to control” value (“Increase in clotting time” below) in data set [7] (setting [10]) worked out at 114 s; in data set [7] (setting [11]), 219 s; in data set [7] (setting [12]) it was 781 s; in data set [7] (setting [13]), 1168 s.

Turning to `O=C(O)C(S)C(S)C(=O)O` (stereo not shown) [Dimercaptosuccinic acid(DMSA), dimercaptosuccinic acid], in data set [8] (setting [14]), the “Increase in clotting time” value is -3 s and the “Clotting time” value came out at 151 s.

In the case of `O=C([O-])CN(CCN(CC(=O)O)CC(=O)O)CC(=O)[O-].[K+].[K+]` [EDTA dipotasium], the pH worked out at 6.93 in [9] (setting [15]) and 6.25 in data set [9] (1 mg/ml in d-water, 21.8-22 °C).

On to `CC(=O)OCOC(=O)CN(CCN(CC(=O)OCOC(C)=O)CC(=O)OCOC(C)=O)CC(=O)OCOC(C)=O` [EDTA tetra acetoxymethyl ester, tetra acetoxymethyl ester EDTA], for which, in [8] (setting [16]), the “Increase in clotting time” value was found to be 4 s and the “Clotting time” value was found to be 158 s.

Regarding `O=C([O-])CN(CCN(CC(=O)[O-])CC(=O)O)CC(=O)[O-].[Na+].[Na+].[Na+]` [EDTA tri sodium, trisodium edetate], the pH in data set [9] (setting [15]) came out at 7.77; in data set [9] (1 mg/ml in d-water, 21.8-22 °C), 9.21.

For the molecule `O=C(O)CN(CCN(CC(=O)O)CC(=O)O)CC(=O)O` [EDTA, ethylenediaminetetraacetic acid], the “Increase in clotting time” value in data set [8] (setting [17]) was 25 s; in data set [8] (setting [18]) it was 93 s; in [8] (setting [19]) it was 121 s; in data set [8] (setting [14]), greater than 346 s. The “Clotting time” value in data set [8] (setting [17]) stood at 179 s; in data set [8] (setting [18]), 247 s; in data set [8] (setting [19]) it was 275 s.

Turning to `O=C([O-])CN(CCN(CC(=O)[O-])CC(=O)O)CC(=O)O.[Na+].[Na+]` [EDTA•2Na•2H2O, disodium edetate], the “Increase in clotting time” value in [8] (setting [18]) was found to be 37 s; in data set [8] (setting [14]), 110 s; in [8] (setting [20]), 220 s. For the same molecule, the “Clotting time” value in [8] (setting [18]) is 191 s; in [8] (setting [14]), 264 s; in data set [8] (setting [20]), 374 s. In addition, the “Clotting time (sec)” value in data set [8] (final drug concentration 300 ng/mg, blood control 154, listed as EDTA disodium salt) was “same trend”. Besides, the pH in data set [9] (setting [15]) came to 6.92; in data set [9] (1 mg/ml in d-water, 21.8-22 °C), 6.42.

Turning to `O=C([O-])CN(CCN(CC(=O)[O-])CC(=O)[O-])CC(=O)[O-].[Na+].[Na+].[Na+].[Na+]` [EDTA•4Na•xH2O, tetrasodium edetate], the “Increase in clotting time” value in [8] (setting [18]) is 50 s; in [8] (setting [14]), 121 s; in data set [8] (setting [21]), 175 s; in data set [8] (setting [20]), greater than 346 s. Besides, the “Clotting time” value in [8] (setting [18]) is 204 s; in [8] (setting [14]) it was 275 s; in [8] (setting [21]) it was 329 s; in data set [8] (setting [20]), greater than 500 s. For the same molecule, the “Clotting time (sec)” value in data set [8] (final drug concentration 300 ng/mg, blood control 154, listed as EDTA tetra sodium salt) was “same trend”. In addition, the pH amounted to 8.27 in data set [9] (setting [15]) and 9.61 in data set [9] (1 mg/ml in d-water, 21.8-22 °C).

Regarding `O=C(NC[C@H]1CN(c2ccc(N3CCOCC3=O)cc2)C(=O)O1)c1ccc(Cl)s1` [Rivaroxaban], the “Fibrin score at day 7” value in data set [3] is recorded as “effective at inhibiting fibrin formation”. In data set [4], the “LLL at day 7” value is “not effective at inhibiting smooth muscle cell proliferation”. Further, in data set [6], the half-inhibitory concentration (IC50) is 312 nM and the “IC50 for Tissue factor generated antiplatelet” value is 0.136 ng/mg.

As to Dalteparin, the “Fibrin score at day 7” value in data set [3] is given as “not effective at inhibiting fibrin formation”. In addition, in [4], the “LLL at day 7” value is “not effective at inhibiting smooth muscle cell proliferation”.
